Data taken from US7790761B2, “Blockade of voltage dependent sodium channels” (University College London, priority 2000, dated 2010).

tested on: sodium channels; experiment: [14C]-labelled guanidine flux through sodium channels; assay type: biochemical, rat; details: inhibition of flux of [14C]-labelled guanidine through sodium channels

Compared with “5-[3-tert-Butyl-1-(2,4-dichlorobenzyl)pyrazol-5-yl]-4-methyltriazole-3-thiol”, Cn1c(SCC(=O)C(C)(C)C)nnc1-c1cc(C(C)(C)C)nn1Cc1ccc(F)cc1 [1-{5-[5-tert-Butyl-2-(4-fluoro-benzyl)-2H-pyrazol-3-yl]-4-methyl-4H-[1,2,4]triazol-3-ylsulfanyl}-3,3-dimethyl-butan-2-one] is higher in IC50: < 9 µM for the first, 13 µM for the second. The first is the more potent here.

CC(C)(C)c1cc(C(=O)Nc2ccc(Br)c(Cl)c2)n(Cc2ccccc2)n1 [2-Benzyl-5-tert-butyl-2H-pyrazole-3-carboxylic acid (4-bromo-3-chloro-phenyl)-amide] and CC(C)(C)c1cc(C(=O)Nc2ccc(Cl)cc2)n(Cc2ccccc2)n1 [2-Benzyl-5-tert-butyl-2H-pyrazole-3-carboxylic acid (4-chloro-phenyl)-amide] are within 1.5-fold of each other in IC50: 3 µM for the first, 4.4 µM for the second.

Compared with CC(C)(C)c1cc(C(=O)NNC(=O)Nc2cccc(C(F)(F)F)c2)n(Cc2ccccc2)n1 [2-Benzyl-5-tert-butyl-2H-pyrazole-3-carboxylic arid N′-(3-trifluoromethylphenylcarbamoyl)hydrazide], CCn1nc(C)cc1-c1nnc(SCc2ccccc2)n1-c1ccccc1 [3-(Benzylthio)-5-(1-ethyl-3-methyl-1H-pyrazol-5-yl)-4-phenyl-4H-1,2,4-triazolehemihydrate] is 40-fold higher in IC50: 0.5 µM for the first, 20 µM for the second.

C#CCSc1nnc(-c2cc(C(C)(C)C)nn2Cc2ccc(Cl)cc2Cl)n1-c1ccccc1 [3-[3-(tert-Butyl)-1-(2,4-dichlorobenzyl)-1H-pyrazol-5-yl]-4-phenyl-5-(prop-2-ynylthio)-4H-1,2,4-tziazole] and Cc1ccc(Cn2nc(C(=O)Nc3ccccc3)cc2C)cc1 [5-Methyl-1-(4-methyl-benzyl)-1H-pyrazole-3-carboxylic acid phenylamide] are within 1.5-fold of each other in IC50: 18 µM for the first, 23 µM for the second.

Cc1ccc(Cn2nc(C)cc2C(=O)Nc2cccc(C(F)(F)F)c2)cc1 [5-Methyl-2-(4-methyl-benzyl)-2H-pyrazole-3-carboxylic acid (3-trifluoromethyl-phenyl)-amide] and Cc1cccc(Cn2nc(C(C)(C)C)cc2-c2nnc(S)n2C2CCCCC2)c1 [5-[3-(tert-Butyl)-1-(3-methylbenzyl)pyrazol-5-yl]-4-cyclohexyl-1,2,4-triazole-3-thiol] cannot be ordered by IC50: 6 µM for the first, < 9 µM for the second.

Compared with CCOC(=O)CSc1nnc(-c2cc(C(C)(C)C)nn2Cc2cccc(C)c2)n1C1CCCCC1 [Ethyl 2-([5-[3-(tert-butyl)-1-(3-methylbenzyl)-1H-pyrazol-5-yl]-4-cyclohexyl-4H-1,2,4-triazol-3-yl]thio)acetate], O=C(NO)c1ccc(-c2nn(Cc3ccccc3)c3ccccc23)o1 [Example 6, 1-Benzyl-3-(5-hydroxylaminocarbonyl-2-furyl)-1H-indazole] is higher in IC50: < 9 µM for the first, 30.9 µM for the second. The first is the more potent here.

CC(C)(C)c1cc(C(=O)Nc2ccccc2)n(Cc2ccccc2)n1 [Example 9, 2-Benzyl-5-tert-butyl-2H-pyrazole-3-carboxylic acid phenylamide] and CC(C)(C)c1cc(C(=O)NCc2ccccc2)n(Cc2ccccc2)n1 [Example 10, 2-Benzyl-5-tert-butyl-2H-pyrazole-3-carboxylic acid benzylamide] cannot be ordered by IC50: < 9 µM for the first, 7 µM for the second.

Going from O=C(Nc1ccccc1)c1cc(-c2ccccc2)n(-c2ccc(Cl)cc2)n1 [Example 11, 1-(4-Chloro-phenyl)-5-phenyl-1H-pyrazole-3-carboxylic acid phenylamide] to COc1ccc(NC(=O)c2cc(C(C)(C)C)nn2Cc2ccc(Cl)cc2Cl)cc1 [Example 12, 5-tert-Butyl-2-(2,4-dichloro-benzyl)-2H-pyrazole-3-carboxylic acid (4-methoxy-phenyl)-amide], the IC50 falls from 18 µM to < 9 µM.

First: CCn1nc(-c2cccs2)cc1C(=O)Nc1ccc(Cl)cc1 [Example 13, 2-Ethyl-5-thiophen-2-yl-2H-pyrazole-3-carboxylic acid (4-chloro-phenyl)-amide]
Second: CC(C)(C)c1cc(C(=O)Nc2ccc(Cl)cc2)n(Cc2ccc(Cl)cc2Cl)n1 [Example 14, (S)-5-tert-Butyl-2-(2,4-dichloro-benzyl)-2H-pyrazole-3-carboxylic acid (4-chloro-phenyl)-amide]
The IC50 of the first is 1.7-fold lower: 17 µM for the first, 29 µM for the second. The first is the more potent here.

CC(C)(C)c1cc(C(=O)NCCc2ccccc2)n(Cc2ccc(Cl)cc2Cl)n1 [Example 15, 5-tert-Butyl-2-(2,4-dichloro-benzyl)-2H-pyrazole-3-carboxylic acid phenethyl-amide] and CCn1nc(-c2cccs2)cc1C(=O)NCCc1ccccc1 [Example 16, (S)-2-Ethyl-5-thiophen-2-yl-2H-pyrazole-3-carboxylic acid phenethyl-amide] are within 1.5-fold of each other in IC50: 10 µM for the first, 13 µM for the second.

CC(C)(C)c1cc(C(=O)Nc2ccccc2)n(Cc2ccc(Cl)cc2Cl)n1 [Example 17, 5-tert-Butyl-2-(2,4-dichloro-benzyl)-2H-pyrazole-3-carboxylic acid phenylamide] and CC(C)(C)c1cc(C(=O)NCc2ccccc2)n(Cc2ccc(Cl)cc2Cl)n1 [Example 18, 5-tert-Butyl-2-(2,4-dichloro-benzyl)-2H-pyrazole-3-carboxylic acid benzylamide] are within 1.5-fold of each other in IC50: 10 µM for the first, 9 µM for the second.

Compared with CN(C)c1ccc(NC(=O)c2cc(-c3ccccc3)n(-c3ccc(Cl)cc3)n2)cc1 [Example 19, 1-(4-Chloro-phenyl)-5-phenyl-1H-pyrazole-3-carboxylic acid (4-dimethylamino-phenyl)-amide], CC(C)(C)c1ccc(NC(=O)c2cc(-c3ccccc3)n(-c3ccc(Cl)cc3)n2)cc1 [Example 20, 1-(4-Chloro-phenyl)-5-phenyl-1H-pyrazole-3-carboxylic acid (4-tert-butyl-phenyl)-amide] is 4-fold higher in IC50: 5 µM for the first, 20 µM for the second. The first is the more potent here.

Cc1cc(C(=O)Nc2ccc(C(C)(C)C)cc2)n(C(C)(C)C)n1 [Example 21, 2-tert-Butyl-5-methyl-2H-pyrazole-3-carboxylic acid (4-tert-butyl-phenyl)-amide] and Cc1cc(C(=O)Nc2ccc(Cl)c(Cl)c2)n(C(C)(C)C)n1 [Example 22, 2-tert-Butyl-5-methyl-2H-pyrazole-3-carboxylic acid (3,4-dichloro-phenyl)-amide] cannot be ordered by IC50: < 9 µM for the first, < 9 µM for the second.

Cn1nc(C(C)(C)C)cc1C(=O)Nc1ccc(Cl)c(Cl)c1 [Example 23, 5-tert-Butyl-2-methyl-2H-pyrazole-3-carboxylic acid (3,4-dichloro-phenyl)-amide] and CC(C)(C)c1cc(C(=O)Nc2ccc(Cl)c(Cl)c2)n(Cc2ccccc2)n1 [Example 24, 2-Benzyl-5-tert-butyl-2H-pyrazole-3-carboxylic acid (3,4-dichloro-phenyl)-amide] cannot be ordered by IC50: < 9 µM for the first, < 9 µM for the second.

Compared with CC(C)(C)c1ccc(NC(=O)c2cc(C(C)(C)C)nn2Cc2ccccc2)cc1 [Example 25, 2-Benzyl-5-tert-butyl-2H-pyrazole-3-carboxylic acid (4-tert-butyl-phenyl)-amide], CN(C)c1ccc(NC(=O)c2cc(C(C)(C)C)nn2Cc2ccccc2)cc1 [Example 27, 2-Benzyl-5-tert-butyl-2H-pyrazole-3-carboxylic acid (4-dimethylamino-phenyl)-amide] is lower in IC50: 18 µM for the first, < 9 µM for the second. The second is the more potent here.

For CC(C)(C)c1cc(C(=O)Nc2cccc(-c3cnco3)c2)n(Cc2ccccc2)n1 [Example 28, 2-Benzyl-5-tert-butyl-2H-pyrazole-3-carboxylic acid (3-oxazol-5-yl-phenyl)-amide], the IC50 was < 9 µM.
